Laboratory results published in US9637770B2, “Methods and devices for handling biofouling” (MEKOROT WATER COMPANY, LTD., priority 2011, dated 2017).

Assays:
[1] = test system: biofilm on the membrane surface; assay: Normalized permeate flow of the pilot plant with low dose of chloramines
Method: FIG. 7 provides a graph showing the normalized permeate flow as a function of operation time for a pilot plant with low dose of chloramines as determined with the bio-sensor test. Also examined was the effect of preventing the development of biofilm on the membrane surface when 4.2 mg/L hypochlorite were added.

microorganisms = assay: Biofouling index on the biosensor after 24 h circulation of water dosed with hypochlorite; assay type: cell-based
Method: The change in color on the biosensor was determined for each water sample in six repetitions as described above.
The biofouling Index was determined as follows: Biofouling Index=100×PPP×(1−PPP)+(100−LL)×PPP
For simplicity, the Biofouling Index was translated into a biofouling score, A, B, C, . . . F, according to ranges of biofouling, with lower biofouling range, representing low biofouling identified as score A. The correlating score is identified in Table 7.
Hypochlorite was dissolved to obtain a stock solution of 140 mg/L. Dilutions of this stock solution were as detailed in Table 9. The dilutions were injected into the water circulating in the biosensing apparatus and the total chlorine concentration was measured for each dilution. As control, no hypochlorite was added.
Circulation conditions: flow: 90 ml/min; circulation container volume: 2 L; duration of circulation: 24 hours at a temperature of 35° C.

biofilm on RO membrane = assay: Biofilm grown on RO membranes for 15 days with input water containing chloramines, measured with CLSM; assay type: cell-based
Method: Biofilm was allowed to grow on the surface of miniature RO membranes (ESNA1-LF, Hydranautics, USA), equipped within a device having the membrane held within a closed chamber, the chamber comprising a feed inlet, brine outlet and permeate outlet for fluids, where the pressure obtain from the desalination pilot pressurized flows.
For biofilm analysis a 5×5 mm membrane segment was taken from each of the tested membranes. Each segment was inserted into an Eppendorf test tube comprising 2 ml 0.24% sterilized TRIS solution (pH 7.2) and the test tubes were turned upside down gently several time. […]
The staining of the RO membranes with SYTO9 and Tetramethylrhodamine, provided information about the presence and quantity of microorganisms and the extracellular polymeric substance (EPS), respectively. The CLSM images were scanned and analyzed with PHLIP software (http://sourceforge.net/projects/phlip/) which enabled quantization of CLSM data with respect to the biovolume of the biofilm. […]
In addition, water from sampling Point No. 3 (SP3) was allowed to flow through miniature membrane facilities (as described above) in parallel, for 15 days in order to allow growth of biofilm on the surface of the membranes. After 15 days, the membranes were treated and analyzed as described above in order to determine the resulting biovolume. […]

For `OCl` [Sodium hypochlorite, sodium hypochlorite], which “Effect on normalized permeate flow” value ([1]; 4.2 mg/L hypochlorite, 320 hours, Stage I, Stage II and Stage III) is on record?
Its value is “no decrease in permeate flow”.

And the “Effect on biofouling on the membranes” value ([1]; treatment with hypochlorite, data not shown)?
Its value is “reduced biofouling on the membranes”.

And the “Amount of hypochlorite sufficient to prevent biofouling (close to zero biofouling)” value (microorganisms; 24 h circulation, 35° C.)?
The value was 4.2 mg/L.

And the “Biofouling index after addition of hypochlorite (drop from control level C)” value (microorganisms; all tested amounts of hypochlorite, control C, 24 h circulation)?
Its value is “B (biofouling index <6)”.

And the Biofouling index (microorganisms; sodium hypochlorite 0.7 mg/l, total chloramines 0.17 mg/l, 24 h circulation, 35° C.)?
Its Biofouling index is “B (biofouling index <6)”.

And the Biofouling index (microorganisms; sodium hypochlorite 1.4 mg/l, total chloramines 0.29 mg/l, 24 h circulation, 35° C.)?
The Biofouling index was “B (biofouling index <6)”.

What about the Biofouling index (microorganisms; sodium hypochlorite 2.1 mg/l, total chloramines 0.45 mg/l, 24 h circulation, 35° C.) of the same molecule?
Its Biofouling index is “B (biofouling index <6)”.

And the Biofouling index (microorganisms; sodium hypochlorite 2.8 mg/l, total chloramines 0.94 mg/l, 24 h circulation, 35° C.)?
Its Biofouling index is “B (biofouling index <6)”.

What about the Biofouling index (microorganisms; sodium hypochlorite 2.8 mg/l, total chloramines 1.0 mg/l, 24 h circulation, 35° C.) of the same molecule?
The Biofouling index was “B (biofouling index <6)”.

And the Biofouling index (microorganisms; sodium hypochlorite 4.2 mg/l, total chloramines 1.42 mg/l, 24 h circulation, 35° C.)?
Its Biofouling index is “B (biofouling index <6)”.

What about the Biofouling index (microorganisms; sodium hypochlorite 4.2 mg/l, total chloramines 1.48 mg/l, 24 h circulation, 35° C.) of the same molecule?
Its Biofouling index is “B (biofouling index <6)”.

What about the Biofouling index (microorganisms; sodium hypochlorite 4.6 mg/l, total chloramines 1.63 mg/l, 24 h circulation, 35° C.) of the same molecule?
The Biofouling index was “B (biofouling index <6)”.

And the Biofouling index (microorganisms; sodium hypochlorite 5.6 mg/l, total chloramines 1.86 mg/l, 24 h circulation, 35° C.)?
The Biofouling index was “B (biofouling index <6)”.

What about the “Biofouling index (numerical, FIG. 4)” value (microorganisms; total chlorine concentration of 1.4 mg/L and more) of the same molecule?
Its value is “close to zero”.

And the “Biovolume of biofilm on the membrane relative to that without hypochlorite” value (biofilm on RO membrane; 4.2 mg/L hypochlorite (1.5 mg/L chloramines), injected 4 hours per day, Stage I input water)?
The value was “about ⅕”.

And the “Thickness of biofilm relative to that in the absence of chloramines” value (biofilm on RO membrane; hypochlorite added (chloramines))?
The value was “about ⅕”.
